For orientation: IC50 means the concentration that inhibits the measured activity by half. Low readings indicate greater potency in that assay, high ones weaker potency in that assay.

Structures are written as SMILES. Some results are limits rather than exact numbers.

Holding throughout (type): functional, cell-based
Experiment [1] relates to N9. Briefly: Compound was tested for the inhibition of 1-42 beta-Amyloid Production in N9 cell line expressing beta-APP (wascreated by transfecting the human cDNA encoding beta-APP 695) by using immunoprecipitation assay.
For experiment [2], the system named is N9. Briefly: Compound was tested for the inhibition of total beta-Amyloid Production in N9 cell line expressing beta-APP (wascreated by transfecting the human cDNA encoding beta-APP 695) by using enzyme-linked immunosorbent assay.
Experiment [3] relates to N9. Kind of experiment: Compound was tested for the inhibition of total beta-Amyloid Production in N9 cell line expressing beta-APP (wascreated by transfecting the human cDNA encoding beta-APP 695) by using immunoprecipitation assay.
For experiment [4], the system named is N9. Kind of experiment: Compound was tested for the inhibition of beta-Amyloid Production in N9 cell line expressing beta-APP. As to conditions: Homo sapiens.
Experiment [5] relates to N9. Kind of experiment: Compound was tested for the inhibition of 1-40 beta-Amyloid Production in N9 cell line expressing beta-APP (wascreated by transfecting the human cDNA encoding beta-APP 695) by using immunoprecipitation assay.

On to `CCC(C)[C@H](NC(=O)/C=C/c1cc(OC)cc(OC)c1)C(=O)N[C@H](C=O)CC(C)C` (stereo not given in full), for which the IC50 in experiment [1] was more than 50 µM; in experiment [2], 10 µM; in experiment [3], 15 µM; in experiment [4] it was 9.6 µM; in experiment [5], 22 µM.

Values taken from ChEMBL document CHEMBL1132400, “A combinatorial approach to the identification of dipeptide aldehyde inhibitors of beta-amyloid production” (J Med Chem, 1999).
